In test [1] the target is T1, Lactoylglutathione lyase (Homo sapiens, UniProt Q04760). The experiment in a line: Inhibition of human N-terminal His6-tagged GLO1 expressed in baculovirus infected sf21 cells assessed as reduction in S-D-lactoylglutathione formation at 100 uM measured for 5 mins in presence of glutathione by spectrophotometric method.
Target sequence in this assay (Q04760 2-184 limits assumed): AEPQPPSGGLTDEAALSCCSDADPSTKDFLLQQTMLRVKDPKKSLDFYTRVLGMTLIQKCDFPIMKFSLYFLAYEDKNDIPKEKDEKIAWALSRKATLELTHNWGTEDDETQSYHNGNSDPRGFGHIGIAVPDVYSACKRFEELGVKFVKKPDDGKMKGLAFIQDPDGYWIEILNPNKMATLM
Test [2] deals with T1, Lactoylglutathione lyase. The experiment in a line: Inhibition of human N-terminal His6-tagged GLO1 expressed in baculovirus infected sf21 cells assessed as reduction in S-D-lactoylglutathione formation measured for 5 mins in presence of glutathione by spectrophotometric method.
Target sequence in this assay (Q04760 whole entry): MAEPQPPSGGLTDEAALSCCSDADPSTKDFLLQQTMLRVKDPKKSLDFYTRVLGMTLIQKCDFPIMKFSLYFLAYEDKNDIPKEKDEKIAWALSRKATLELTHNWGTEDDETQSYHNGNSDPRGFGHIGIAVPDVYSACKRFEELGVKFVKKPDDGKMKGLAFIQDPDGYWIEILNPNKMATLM
In test [3] the test system is NCI-H522. The test is described as follows: Antiproliferative activity against human NCI-H522 cells after 24 hrs by WST8 assay. Type of test: functional, cell-based. Conditions: NCI-H522, 24 h. On the technique in general: Tetrazolium assays rely on reduction of a dye to a coloured formazan, in cell work by metabolically active cells.
Test [4] deals with NCI-H522. The experiment in a line: Antiproliferative activity against human NCI-H522 cells after 48 hrs by WST8 assay. Type of test: functional, cell-based. Conditions: NCI-H522, 48 h.
Test [5] relates to NCI-H522. The test is described as follows: Antiproliferative activity against human NCI-H522 cells after 72 hrs by WST8 assay. Type of test: functional, cell-based. Conditions: NCI-H522, 72 h.
For test [6], the system named is NCI-H460. The experiment in a line: Antiproliferative activity against human NCI-H460 cells at 50 uM after 24 to 72 hrs by WST8 assay. Type of test: functional, cell-based.
Test [7] concerns NCI-H522. The test is described as follows: Antiproliferative activity against human NCI-H522 cells overexpressing human GLO1 at 10 to 30 uM after 72 hrs by WST8 assay. Type of test: functional, cell-based.
Test [8] deals with T1, Lactoylglutathione lyase. The test is described as follows: Potency index, ratio of baicalein IC50 to compound IC50 for human N-terminal His6-tagged GLO1 expressed in baculovirus infected sf21 cells.
Target sequence in this assay (Q04760 2-184 limits assumed): as the sequence (Q04760 2-184 limits assumed) above

The source made the active and inactive calls. The calls are words filed in the database; no cut-off is given here.

With `COc1cc(/C=C/c2ccc(OC)c(OC)c2)cc(OC)c1`, the inhibition result in test [1] was “Active”.

On to `Oc1cc(O)cc(/C=C/c2ccc(O)c(O)c2)c1` [PICEATANNOL], for which the inhibition result in test [1] is “Active”. The IC50 in test [2] worked out at 0.76 µM. For the same compound, the figures for the EC50 in test [3], in test [4] and in test [5] were 53 µM, 23 µM and 17 µM, respectively. Further, the result in test [6] and in test [7] was inactive. The Ratio IC50 in test [8] was 14.

Broadly, the IC50 is the concentration needed to halve the response being measured. One may read the EC50 as the concentration giving half of the maximal effect. Read a low EC50 as greater potency.
